Data from patent US12421209B2, “Compounds” (Hoffmann-La Roche Inc., priority 2021, dated 2025).
pIC50: −log10 of the molar value.

Key:
[1] = target: T1, NLRP3 (Homo sapiens, UniProt Q96P20); assay: THP-1 cells pyroptosis assay (LPS priming, nigericin, resazurin read-out); type: cell-based; parameters: Seed THP-1 cells (25,000 cells/well) containing 1.0 μg/ml LPS; host or cells: THP-1 cells; details: 1.0 μg/ml LPS, 5 μM nigericin
Procedure: THP-1 cells (ATCC #TIB-202) were grown in RPMI containing L-glutamine (Gibco #11835) supplemented with 1 mM sodium pyruvate (Sigma #S8636) and penicillin (100 units/ml)/streptomycin (0.1 mg/ml) (Sigma #P4333) in 10% Fetal Bovine Serum (FBS) (Sigma #F0804). The cells were routinely passaged and grown to confluency (˜10^6 cells/ml). On the day of the experiment, THP-1 cells were harvested and resuspended into RPMI medium (without FBS). The cells were then counted and viability (>90%) checked by Trypan blue (Sigma #T8154). Appropriate dilutions were made to give a concentration of 625,000 cells/ml. To this diluted cell solution was added LPS (Sigma #L4524) to give a lug/ml Final Assay Concentration (FAC). 40 μl of the final preparation was aliquoted into each well of a 96-well plate. The plate thus prepared was used for compound screening.
The following method step-by-step assay was followed for compound screening. • 1. Seed THP-1 cells (25,000 cells/well) containing 1.0 μg/ml LPS in 40 μl of RPMI medium (without FBS) in 96-well, black walled, clear bottom cell culture plates coated with poly-D-lysine (VWR #734-0317) • 2. Add 5 μl compound (8 points half-log dilution, with 10 μM top dose) or vehicle (DMSO 0.1% FAC) to the appropriate wells • 3. Incubate for 3 hours at 37° C., 5% CO2 • 4. Add 5 μl nigericin (Sigma #N7143) (FAC 5 μM) to all wells • 5. Incubate for 1 hr at 37° C., 5% CO2 • 6. At the end of the incubation period, spin plates at 300×g for 3 mins and remove supernatant • 7. Then add 50 μl of resazurin (Sigma #R7017) (FAC 100 μM resazurin in RPMI medium without FBS) and incubate plates for a further 1-2 hours at 37° C. and 5% CO2 • 8. Plates were read in an Envision reader at Ex 560 nm and Em 590 nm • 9. IC50 data is fitted to a non-linear regression equation (log inhibitor vs response-variable slope 4-parameters)

[2] = target: T1, NLRP3; assay: Human whole blood IL-1β release assay (LPS, nigericin, AlphaLisa); type: cell-based; parameters: Human whole blood in Li-heparin tubes was obtained from healthy donors; from tissue; host or cells: human whole blood from healthy donors; details: 10 μM nigericin
Procedure: For systemic delivery, the ability to inhibit NLRP3 when the compounds are present within the bloodstream is of great importance. For this reason, the NLRP3 inhibitory activity of a number of compounds in human whole blood was investigated in accordance with the following protocol.
Human whole blood in Li-heparin tubes was obtained from healthy donors from a volunteer donor panel. • 1. Plate out 80 μl of whole blood containing lug/ml of LPS in 96-well, clear bottom cell culture plate (Corning #3585) • 2. Add 10 μl compound (8 points half-log dilution with 10 μM top dose) or vehicle (DMSO 0.1% FAC) to the appropriate wells • 3. Incubate for 3 hours at 37° C., 5% CO2 • 4. Add 10 μl nigericin (Sigma #N7143) (10 μM FAC) to all wells • 5. Incubate for 1 hr at 37° C., 5% CO2 • 6. At the end of the incubation period, spin plates at 300×g for 5 mins to pellet cells and remove 20 μl of supernatant and add to 96-well v-bottom plates for IL-1β analysis (note: these plates containing the supernatants can be stored at −80° C. to be analysed at a later date) • 7. IL-1β was measured according to the manufacturer protocol (Perkin Elmer-AlphaLisa IL-1 Kit AL220F-5000) • 8. IC50 data is fitted to a non-linear regression equation (log inhibitor vs response-variable slope 4-parameters)

T1 sequence (Q96P20 whole entry): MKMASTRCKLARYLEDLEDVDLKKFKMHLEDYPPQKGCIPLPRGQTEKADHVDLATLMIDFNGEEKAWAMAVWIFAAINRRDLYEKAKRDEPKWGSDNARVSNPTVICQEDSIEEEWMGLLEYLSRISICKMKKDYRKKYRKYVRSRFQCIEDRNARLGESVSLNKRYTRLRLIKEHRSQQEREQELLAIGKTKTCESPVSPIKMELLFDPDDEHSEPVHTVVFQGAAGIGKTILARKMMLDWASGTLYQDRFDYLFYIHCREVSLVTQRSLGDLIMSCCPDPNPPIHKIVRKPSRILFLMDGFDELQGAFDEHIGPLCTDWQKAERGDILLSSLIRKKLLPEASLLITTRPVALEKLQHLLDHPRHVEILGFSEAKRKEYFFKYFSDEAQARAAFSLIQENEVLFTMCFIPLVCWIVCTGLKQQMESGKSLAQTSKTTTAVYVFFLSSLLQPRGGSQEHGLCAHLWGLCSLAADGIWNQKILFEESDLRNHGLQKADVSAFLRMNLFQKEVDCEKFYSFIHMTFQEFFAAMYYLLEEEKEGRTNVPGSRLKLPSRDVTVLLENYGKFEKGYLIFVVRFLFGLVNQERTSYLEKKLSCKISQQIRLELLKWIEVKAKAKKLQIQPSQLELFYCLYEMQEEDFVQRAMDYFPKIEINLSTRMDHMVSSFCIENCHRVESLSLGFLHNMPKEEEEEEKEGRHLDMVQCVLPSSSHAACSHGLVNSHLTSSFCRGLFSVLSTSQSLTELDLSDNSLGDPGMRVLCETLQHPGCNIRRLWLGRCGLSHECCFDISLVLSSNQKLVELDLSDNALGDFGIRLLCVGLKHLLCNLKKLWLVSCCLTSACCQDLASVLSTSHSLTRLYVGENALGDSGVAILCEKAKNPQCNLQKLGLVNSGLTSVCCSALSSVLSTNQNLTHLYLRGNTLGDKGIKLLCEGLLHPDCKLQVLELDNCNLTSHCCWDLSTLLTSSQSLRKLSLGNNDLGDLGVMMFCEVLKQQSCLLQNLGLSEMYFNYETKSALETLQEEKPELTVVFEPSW

Row | pIC50 [1] | pIC50 [2] | SMILES
1 | 7.79 | 7.44 | Cc1nc(NC2CCC3CCCN3C2)nnc1-c1ccc(C(F)(F)F)cc1O (single isomer, unassigned) [Example 32, 2-[3-[[(6R or 6S,8aS or 8aR)-1,2,3,5,6,7,8,8a-octahydroindolizin-6-yl]amino]-5-methyl-1,2,4-triazin-6-yl]-5-(trifluoromethyl) phenol]
2 | 8.29 |  | Cc1nc(N[C@H]2CCCN3CCC[C@H]23)nnc1-c1ccc(C(F)(F)F)cc1O (racemic) [Example 26, 2-[5-Methyl-3-[[rac-(8S,8aR)-1,2,3,5,6,7,8,8a-octahydroindolizin-8-yl]amino]-1,2,4-triazin-6-yl]-5-(trifluoromethyl) phenol]
3 | 8.05 | 7.41 | CCN1CCC[C@@H](Nc2ncc(-c3c(C)cc(C(F)(F)F)cc3O)nn2)C1 [Example 1, 2-[3-[[(3R)-1-Ethyl-3-piperidyl]amino]-1,2,4-triazin-6-yl]-3-methyl-5-(trifluoromethyl) phenol; 2,2,2-trifluoroacetic acid]
4 | 7.30 | 6.90 | CCN1C[C@@H](O)C[C@@H](Nc2nnc(-c3c(C)cc(C(F)(F)F)cc3O)c(C)n2)C1 [Example 24, (3S,5R)-1-Ethyl-5-[[6-[2-hydroxy-6-methyl-4-(trifluoromethyl)phenyl]-5-methyl-1,2,4-triazin-3-yl]amino]piperidin-3-ol]
5 | 6.68 |  | Cc1nc(NC2CCC3CCCN3C2)nnc1-c1ccc(C(F)(F)F)cc1O (single isomer, unassigned) [Example 34, 2-[3-[[(6R or 6S, 8aR or 8aS)-1,2,3,5,6,7,8,8a-octahydroindolizin-6-yl]amino]-5-methyl-1,2,4-triazin-6-yl]-5-(trifluoromethyl) phenol]
6 | 9.00 | 7.69 | Cc1nc(N[C@@H]2CCCN(C)C2)nnc1-c1ccc(C(F)(F)F)cc1O [Example 18, 2-[5-Methyl-3-[[(3R)-1-methyl-3-piperidyl]amino]-1,2,4-triazin-6-yl]-5-(trifluoromethyl) phenol]
7 | 6.79 |  | Cc1nc(NC2CCCN3CCCC23)nnc1-c1ccc(C(F)(F)F)cc1O (single isomer, unassigned) [Example 29]
8 | 6.46 |  | Cc1nc(NC2CCCn3ccnc32)nnc1-c1ccc(C(F)(F)F)cc1O (stereo not drawn) [Example 14, 2-[5-Methyl-3-(5,6,7,8-tetrahydroimidazo[1,2-a]pyridin-8-ylamino)-1,2,4-triazin-6-yl]-5-(trifluoromethyl) phenol]
9 | 7.11 |  | Cc1nc(N[C@@H]2C[C@H](F)CN(C)C2)nnc1-c1ccc(C(F)(F)F)cc1O [Example 13, 2-[3-[[(3R,5S)-5-Fluoro-1-methyl-3-piperidyl]amino]-5-methyl-1,2,4-triazin-6-yl]-5-(trifluoromethyl) phenol]
10 | 8.66 | 7.81 | Cc1nc(NC2CCCN(C(C)(C)C)C2)nnc1-c1ccc(C(F)(F)F)cc1O (single isomer, unassigned) [Example 11, 2-[3-[[(3S or 3R)-1-tert-Butyl-3-piperidyl]amino]-5-methyl-1,2,4-triazin-6-yl]-5-(trifluoromethyl) phenol]
11 | 8.92 | 7.99 | CCN1CCC[C@@H](Nc2nnc(-c3ccc(OC(F)(F)F)cc3O)c(C)n2)C1 [Example 22, 2-[3-[[(3R)-1-Ethyl-3-piperidyl]amino]-5-methyl-1,2,4-triazin-6-yl]-5-(trifluoromethoxy) phenol]
12 | 7.69 | 7.62 | CCN1CCC[C@@H](Nc2nnc(-c3ccc(C#N)cc3O)c(C)n2)C1 [Example 12, 4-[3-[[(3R)-1-Ethyl-3-piperidyl]amino]-5-methyl-1,2,4-triazin-6-yl]-3-hydroxy-benzonitrile]
13 | 8.62 | 7.73 | Cc1nc(NC2CCCN3CCCC23)nnc1-c1ccc(C(F)(F)F)cc1O (single isomer, unassigned) [Example 28]
14 | 6.95 |  | CCN1CCC[C@@H](Nc2nnc(-c3ccc(C(F)(F)F)cc3O)c(C(F)(F)F)n2)C1 [Example 30, 2-[3-[[(3R)-1-Ethyl-3-piperidyl]amino]-5-(trifluoromethyl)-1,2,4-triazin-6-yl]-5-(trifluoromethyl) phenol; 2,2,2-trifluoroacetic acid]
15 | 8.80 | 7.24 | CCN1CCC[C@@H](Nc2nnc(-c3c(C)cc(C(F)(F)F)cc3O)c(C)n2)C1 [Example 21, 2-[3-[[(3R)-1-Ethyl-3-piperidyl]amino]-5-methyl-1,2,4-triazin-6-yl]-3-methyl-5-(trifluoromethyl) phenol]
16 | 7.81 | 7.84 | CCN1CCC[C@@H](Nc2nnc(-c3ccc(F)cc3O)c(C)n2)C1 [Example 6, 2-[3-[[(3R)-1-Ethyl-3-piperidyl]amino]-5-methyl-1,2,4-triazin-6-yl]-5-fluoro-phenol]
17 | 9.40 | 8.37 | CCN1CCC[C@@H](Nc2nnc(-c3ccc4c(c3O)CC4)c(C)n2)C1 [Example 8, 3-[3-[[(3R)-1-Ethyl-3-piperidyl]amino]-5-methyl-1,2,4-triazin-6-yl]bicyclo[4.2.0]octa-1(6),2,4-trien-2-ol]
18 | 8.46 | 7.56 | CCN1CCC[C@@H](Nc2nnc(-c3c(O)cc(C(F)(F)F)cc3F)c(C)n2)C1 [Example 9, 2-[3-[[(3R)-1-Ethyl-3-piperidyl]amino]-5-methyl-1,2,4-triazin-6-yl]-3-fluoro-5-(trifluoromethyl) phenol]
19 | 7.34 | 6.52 | Cc1nc(NC2CCC3CCCN3C2)nnc1-c1ccc(C(F)(F)F)cc1O (single isomer, unassigned) [Example 33, 2-[3-[[(6S or 6R,8aR or 8aS)-1,2,3,5,6,7,8,8a-octahydroindolizin-6-yl]amino]-5-methyl-1,2,4-triazin-6-yl]-5-(trifluoromethyl) phenol]
20 | < 6.00 |  | Cc1nc(NC2CCC3CCCN3C2)nnc1-c1ccc(C(F)(F)F)cc1O (single isomer, unassigned) [Example 31, 2-[3-[[(6S or 6R,8aS or 8aR)-1,2,3,5,6,7,8,8a-octahydroindolizin-6-yl]amino]-5-methyl-1,2,4-triazin-6-yl]-5-(trifluoromethyl) phenol]
21 | 7.49 | 6.64 | Cc1nc(N[C@@H]2CCCC[C@H]2O)nnc1-c1ccc(C(F)(F)F)cc1O [Example 19, 2-[3-[[(1R,2R)-2-Hydroxycyclohexyl]amino]-5-methyl-1,2,4-triazin-6-yl]-5-(trifluoromethyl) phenol]
22 | 7.74 | 7.82 | Cc1nc(N[C@@H]2CCCN(C)C2)nnc1-c1ccc(F)cc1O [Example 15, 5-Fluoro-2-[5-methyl-3-[[(3R)-1-methyl-3-piperidyl]amino]-1,2,4-triazin-6-yl]phenol]
23 | 7.68 |  | Cc1nc(N[C@H]2CCCN3CCC[C@@H]23)nnc1-c1ccc(C(F)(F)F)cc1O (racemic) [Example 27, 2-[5-Methyl-3-[[rac-(8S,8aS)-1,2,3,5,6,7,8,8a-octahydroindolizin-8-yl]amino]-1,2,4-triazin-6-yl]-5-(trifluoromethyl) phenol]

Row | SMILES | pIC50 [1] | pIC50 [2]
24 | Cc1nc(N[C@@H]2CCCN(C(C)(C)C)C2)nnc1-c1ccc(C(F)(F)F)cc1O (single isomer, unassigned) [Example 10, 2-[3-[[(3R or 3S)-1-tert-Butyl-3-piperidyl]amino]-5-methyl-1,2,4-triazin-6-yl]-5-(trifluoromethyl) phenol] | 6.36 | 
